According to US20260262643A1, “HERBICIDAL BENZOXAZINES” (FMC CORPORATION, priority 2022, published 2026):

What was measured:
[1] = system: barnyardgrass; experiment: Test C preemergence; type: in vivo, Echinochloa crusgalli; settings: for Plant response rating, Barnyardgrass: Preemergence; for Barnyardgrass plant response rating: preemergence
Outline: (§1)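 Seeds sown in loam soil–sand blend received a directed preemergence soil spray of test chemical in non-phytotoxic solvent with surfactant; postemergence plants (2–10 cm, one- to two-leaf stage) were sprayed with the same formulation. Greenhouse-held 10 days, then visually rated for injury versus untreated controls, 0 (no effect) to 100 (complete control).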

[2] = system: blackgrass; experiment: Test C preemergence; type: in vivo, Alopecurus myosuroides; settings: for Plant response rating, Blackgrass: Preemergence; for Blackgrass plant response rating: preemergence
Outline: as §1

[3] = system: corn; experiment: Test C preemergence; type: in vivo, Zea mays; settings: for Corn plant response rating: preemergence, 0 to 100 scale (0 no effect, 100 complete control)
Outline: as §1

[4] = system: green foxtail; experiment: Test C preemergence; type: in vivo, Setaria viridis; settings: for Foxtail, Green plant response rating: preemergence, 0 to 100 scale (0 no effect, 100 complete control)
Outline: as §1

[5] = system: kochia; experiment: Test C preemergence; type: in vivo, Bassia scoparia; settings: for Kochia plant response rating: preemergence, 0 to 100 scale (0 no effect, 100 complete control)
Outline: as §1

[6] = system: oat, wild; experiment: Test C preemergence; type: in vivo, Avena fatua; settings: for Oat, Wild plant response rating: preemergence, 0 to 100 scale (0 no effect, 100 complete control)
Outline: as §1

[7] = system: pigweed, palmer; experiment: Test C preemergence; type: in vivo, Amaranthus palmeri; settings: for Pigweed, Palmer plant response rating: preemergence, 0 to 100 scale (0 no effect, 100 complete control)
Outline: as §1

[8] = system: ragweed; experiment: Test C preemergence; type: in vivo, Ambrosia artemisiifolia; settings: for Ragweed plant response rating: preemergence, 0 to 100 scale (0 no effect, 100 complete control)
Outline: as §1

[9] = system: ryegrass, Italian; experiment: Test C preemergence; type: in vivo, Lolium multiflorum; settings: for Ryegrass, Italian plant response rating: preemergence, 0 to 100 scale (0 no effect, 100 complete control)
Outline: as §1

[10] = system: soybean; experiment: Test C preemergence; type: in vivo, Glycine max; settings: for Soybean plant response rating: preemergence, 0 to 100 scale (0 no effect, 100 complete control)
Outline: as §1

[11] = system: wheat; experiment: Test C preemergence; type: in vivo, Triticum aestivum; settings: for Wheat plant response rating: preemergence, 0 to 100 scale (0 no effect, 100 complete control)
Outline: as §1

[12] = system: barnyardgrass; experiment: Test C postemergence; type: in vivo, Echinochloa crusgalli; settings: 10 days
Outline: as §1

[13] = system: blackgrass; experiment: Test C postemergence; type: in vivo, Alopecurus myosuroides; settings: 10 days
Outline: as §1

[14] = system: corn; experiment: Test C postemergence; type: in vivo, Zea mays; settings: 10 days
Outline: as §1

[15] = system: green foxtail; experiment: Test C postemergence; type: in vivo, Setaria viridis; settings: 10 days
Outline: as §1

[16] = system: kochia; experiment: Test C postemergence; type: in vivo, Bassia scoparia; settings: 10 days
Outline: as §1

[17] = system: oat, wild; experiment: Test C postemergence; type: in vivo, Avena fatua; settings: 10 days
Outline: as §1

[18] = system: pigweed, palmer; experiment: Test C postemergence; type: in vivo, Amaranthus palmeri; settings: 10 days
Outline: as §1

[19] = system: ragweed; experiment: Test C postemergence; type: in vivo, Ambrosia artemisiifolia; settings: 10 days
Outline: as §1

[20] = system: ryegrass, Italian; experiment: Test C postemergence; type: in vivo, Lolium multiflorum; settings: 10 days
Outline: as §1

[21] = system: soybean; experiment: Test C postemergence; type: in vivo, Glycine max; settings: 10 days
Outline: as §1

[22] = system: wheat; experiment: Test C postemergence; type: in vivo, Triticum aestivum; settings: 10 days
Outline: as §1

[23] = system: galium; experiment: Test C postemergence; type: in vivo, Galium aparine; settings: 10 days
Outline: as §1

[24] = system: horseweed; experiment: Test C postemergence; type: in vivo, Erigeron canadensis; settings: 10 days
Outline: as §1

[25] = system: barnyardgrass; experiment: Test D flooded paddy test; type: in vivo, Echinochloa crus-galli; settings: 250 g ai/ha, applied to paddy water, visual rating after 13 to 14 days, scale 0 to 100 (0 no effect, 100 complete control)
Outline: (§2)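 2-leaf plants; flood 3 cm above soil; compound dosed into paddy water; greenhouse 13–14 d; visual rating vs controls, 0–100 (100 = complete control); dash = not tested.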

[26] = system: ducksalad; experiment: Test D flooded paddy test; type: in vivo, Heteranthera limosa; settings: 250 g ai/ha, applied to paddy water, visual rating after 13 to 14 days, scale 0 to 100 (0 no effect, 100 complete control)
Outline: as §2

[27] = system: rice; experiment: Test D flooded paddy test; type: in vivo, Oryza sativa; settings: 250 g ai/ha, applied to paddy water, visual rating after 13 to 14 days, scale 0 to 100 (0 no effect, 100 complete control)
Outline: as §2

[28] = system: sedge, umbrella; experiment: Test D flooded paddy test; type: in vivo, Cyperus difformis; settings: 250 g ai/ha, applied to paddy water, visual rating after 13 to 14 days, scale 0 to 100 (0 no effect, 100 complete control)
Outline: as §2

[29] = 500 g ai/ha, visual rating after 10 days, 0 to 100 scale (0 no effect, 100 complete control)
[30] = Test C, 125 g ai/ha, 0 to 100 scale (0 no effect, 100 complete control)
[31] = 125 g ai/ha, postemergence, 0 to 100 scale, 0 no effect, 100 complete control
[32] = Postemergence, 500 g ai/ha, visual 0 to 100 scale (0 no effect, 100 complete control)
[33] = 500 g ai/ha, 0 to 100 scale (0 no effect, 100 complete control)
[34] = 125 g ai/ha, 0 to 100 scale, 0 no effect, 100 complete control
[35] = Preemergence, 125 g ai/ha, 0 to 100 scale, 0 no effect, 100 complete control
[36] = 500 g ai/ha, postemergence, 0 to 100 scale (0 no effect, 100 complete control)
[37] = Postemergence, 125 g ai/ha, 0 to 100 scale (0 no effect, 100 complete control)

SMILES: CCc1ccc(-n2cnc(C(C)(C)O)n2)cc1C(=O)N1C[C@H](C)Oc2c(C)cccc21 [Compound 279]
- Plant response rating, Barnyardgrass [1, 29]: 100
- Barnyardgrass plant response rating [1, 30]: 90
- Plant response rating, Blackgrass [2, 29]: 90
- Blackgrass plant response rating [2, 30]: 70
- Corn plant response rating ([3]; 500 g ai/ha): 80
- Corn plant response rating ([3]; Test C, 125 g ai/ha): 50
- Foxtail, Green plant response rating ([4]; 500 g ai/ha): 100
- Foxtail, Green plant response rating ([4]; Test C, 125 g ai/ha): 100
- Kochia plant response rating ([5]; 500 g ai/ha): 90
- Kochia plant response rating ([5]; Test C, 125 g ai/ha): 70
- Oat, Wild plant response rating ([6]; 500 g ai/ha): 90
- Oat, Wild plant response rating ([6]; Test C, 125 g ai/ha): 80
- Pigweed, Palmer plant response rating ([7]; 500 g ai/ha): 100
- Pigweed, Palmer plant response rating ([7]; Test C, 125 g ai/ha): 100
- Ragweed plant response rating ([8]; 500 g ai/ha): 90
- Ragweed plant response rating ([8]; Test C, 125 g ai/ha): 70
- Ryegrass, Italian plant response rating ([9]; 500 g ai/ha): 90
- Ryegrass, Italian plant response rating ([9]; Test C, 125 g ai/ha): 90
- Soybean plant response rating ([10]; 500 g ai/ha): 100
- Soybean plant response rating ([10]; Test C, 125 g ai/ha): 90
- Wheat plant response rating ([11]; 500 g ai/ha): 90
- Wheat plant response rating ([11]; Test C, 125 g ai/ha): 60
- Plant response rating, Barnyardgrass [12, 31]: 90
- Plant response rating, Barnyardgrass [12, 32]: 100
- Plant response rating, Blackgrass [13, 31]: 80
- Plant response rating, Blackgrass [13, 32]: 90
- Plant response rating, Corn [14, 31]: 90
- Plant response rating, Corn [14, 32]: 90
- Plant response rating, Foxtail, Green [15, 31]: 90
- Plant response rating, Foxtail, Green [15, 32]: 90
- Plant response rating, Kochia [16, 31]: 20
- Plant response rating, Oat, Wild [17, 31]: 80
- Plant response rating, Pigweed, Palmer [18, 31]: 70
- Plant response rating, Ragweed [19, 31]: 50
- Plant response rating, Ryegrass, Italian [20, 31]: 90
- Plant response rating, Soybean [21, 31]: 100
- Plant response rating, Wheat [22, 31]: 80
- Plant response rating, Galium [23, 31]: 100
- Plant response rating, Galium [23, 32]: 100
- Plant response rating, Horseweed [24, 31]: 0
- Plant response rating, Horseweed [24, 32]: 20
- Plant response rating, Barnyardgrass (Flood) [25]: 60
- Plant response rating, Ducksalad (Flood) [26]: 100
- Plant response rating, Rice (Flood) [27]: 35
- Plant response rating, Sedge, Umbrella (Flood) [28]: 100

SMILES: CC(C)c1ncn(-c2ccc([S+](C)[O-])c(C(=O)N3C[C@H](C)Oc4c(Cl)cccc43)c2)n1 (stereo partly shown) [Compound 394]
- Barnyardgrass plant response rating [1, 33]: 100
- Plant response rating, Barnyardgrass [1, 34]: 70
- Blackgrass plant response rating [2, 33]: 90
- Plant response rating, Blackgrass [2, 34]: 30
- Corn plant response rating ([3]; 500 g ai/ha): 30
- Plant response rating, Corn [3, 35]: 20
- Foxtail, Green plant response rating ([4]; 500 g ai/ha): 100
- Plant response rating, Foxtail, Green [4, 35]: 100
- Kochia plant response rating ([5]; 500 g ai/ha): 100
- Plant response rating, Kochia [5, 35]: 90
- Oat, Wild plant response rating ([6]; 500 g ai/ha): 90
- Plant response rating, Oat, Wild [6, 35]: 30
- Pigweed, Palmer plant response rating ([7]; 500 g ai/ha): 100
- Plant response rating, Pigweed, Palmer [7, 35]: 100
- Ragweed plant response rating ([8]; 500 g ai/ha): 50
- Plant response rating, Ragweed [8, 35]: 0
- Ryegrass, Italian plant response rating ([9]; 500 g ai/ha): 90
- Plant response rating, Ryegrass, Italian [9, 35]: 60
- Soybean plant response rating ([10]; 500 g ai/ha): 100
- Plant response rating, Soybean [10, 35]: 20
- Wheat plant response rating ([11]; 500 g ai/ha): 80
- Plant response rating, Wheat [11, 35]: 20
- Plant response rating, Barnyardgrass [12, 36]: 70
- Plant response rating, Barnyardgrass [12, 37]: 50
- Plant response rating, Blackgrass [13, 36]: 70
- Plant response rating, Blackgrass [13, 37]: 50
- Plant response rating, Corn [14, 36]: 50
- Plant response rating, Corn [14, 37]: 20
- Plant response rating, Foxtail, Green [15, 36]: 90
- Plant response rating, Foxtail, Green [15, 37]: 30
- Plant response rating, Kochia [16, 36]: 90
- Plant response rating, Kochia [16, 37]: 90
- Plant response rating, Oat, Wild [17, 36]: 70
- Plant response rating, Oat, Wild [17, 37]: 50
- Plant response rating, Pigweed, Palmer [18, 36]: 80
- Plant response rating, Pigweed, Palmer [18, 37]: 80
- Plant response rating, Ragweed [19, 36]: 70
- Plant response rating, Ragweed [19, 37]: 70
- Plant response rating, Ryegrass, Italian [20, 36]: 90
- Plant response rating, Ryegrass, Italian [20, 37]: 50
- Plant response rating, Soybean [21, 36]: 100
- Plant response rating, Soybean [21, 37]: 100
- Plant response rating, Wheat [22, 36]: 50
- Plant response rating, Wheat [22, 37]: 30
- Plant response rating, Galium [23, 36]: 100
- Plant response rating, Galium [23, 37]: 100
- Plant response rating, Horseweed [24, 36]: 20
- Plant response rating, Horseweed [24, 37]: 0
- Plant response rating, Barnyardgrass (Flood) [25]: 15
- Plant response rating, Ducksalad (Flood) [26]: 10
- Plant response rating, Rice (Flood) [27]: 0
- Plant response rating, Sedge, Umbrella (Flood) [28]: 0
